{"source": "paper PMC3605638", "about": "(The Journal of Biological Chemistry, 2013)", "molecular_target": "T1, D. discoideum class I RNR (NrdA + NrdB) (Dictyostelium discoideum, UniProt Q54Q71)", "T1 sequence (Q54Q71 1-870)": "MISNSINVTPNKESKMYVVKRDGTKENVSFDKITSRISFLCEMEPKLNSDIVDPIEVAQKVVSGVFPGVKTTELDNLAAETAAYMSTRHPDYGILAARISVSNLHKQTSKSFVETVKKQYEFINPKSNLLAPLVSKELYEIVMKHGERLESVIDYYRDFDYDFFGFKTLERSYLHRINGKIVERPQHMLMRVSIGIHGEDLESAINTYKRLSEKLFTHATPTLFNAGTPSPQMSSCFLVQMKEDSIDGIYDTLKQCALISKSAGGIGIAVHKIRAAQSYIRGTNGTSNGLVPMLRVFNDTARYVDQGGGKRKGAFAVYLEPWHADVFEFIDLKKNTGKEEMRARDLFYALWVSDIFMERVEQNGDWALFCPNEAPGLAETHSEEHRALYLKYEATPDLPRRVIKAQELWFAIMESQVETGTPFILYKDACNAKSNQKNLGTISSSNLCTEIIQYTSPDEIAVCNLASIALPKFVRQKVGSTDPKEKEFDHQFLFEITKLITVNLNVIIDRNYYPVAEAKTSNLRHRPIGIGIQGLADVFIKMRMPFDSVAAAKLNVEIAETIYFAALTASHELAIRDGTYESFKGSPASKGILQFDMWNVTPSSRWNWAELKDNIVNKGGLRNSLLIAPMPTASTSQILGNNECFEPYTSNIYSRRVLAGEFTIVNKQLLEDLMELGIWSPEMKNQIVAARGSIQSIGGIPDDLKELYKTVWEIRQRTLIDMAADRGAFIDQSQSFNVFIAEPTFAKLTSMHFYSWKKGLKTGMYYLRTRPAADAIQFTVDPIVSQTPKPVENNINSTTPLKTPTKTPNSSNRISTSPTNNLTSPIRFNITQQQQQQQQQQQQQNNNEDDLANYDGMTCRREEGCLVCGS", "T1 sequence (P42521 1-338 partner)": "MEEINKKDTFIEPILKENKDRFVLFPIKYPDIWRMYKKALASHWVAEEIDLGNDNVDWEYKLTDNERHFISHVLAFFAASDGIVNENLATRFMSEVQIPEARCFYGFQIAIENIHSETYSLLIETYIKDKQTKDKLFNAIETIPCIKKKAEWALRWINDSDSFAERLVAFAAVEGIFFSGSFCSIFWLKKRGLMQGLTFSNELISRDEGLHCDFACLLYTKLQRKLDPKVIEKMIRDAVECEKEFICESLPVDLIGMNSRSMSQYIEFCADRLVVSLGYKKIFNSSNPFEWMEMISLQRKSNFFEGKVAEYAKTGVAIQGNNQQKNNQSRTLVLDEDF", "experiment": "radiolabelled GDP reduction assay", "assay_type": "biochemical", "conditions": "dTTP as effector; 0.7 mM [14C]GDP; labelled compound; pH 7.5, 25 °C"}
{"compound": "Nc1nc2c(ncn2[C@@H]2O[C@H](COP(=O)(O)OP(=O)(O)O)[C@@H](O)[C@H]2O)c(=O)[nH]1", "note": "[GDP]", "values": [{"measurement": "radiolabelled GDP reduction assay", "result": "characterized in vitro with CDP or GDP as substrate"}]}
